Experimental data reported in patent US9439425B2, “Plant disease control composition and plant disease control method” (Sumitomo Chemical Company, Limited, priority 2012, dated 2016).

The compounds below were run on powdery mildew (assay: Test Example 1: foliar spray on potted wheat, powdery mildew inoculation, control value from onset area rate). Conditions: treatment concentration 0.1 ppm, single agent; foliage spray on wheat, powdery mildew inoculated, 7 days at 21° C.
Assay type: in vivo, Wheat (Shirogane)
Experimental: A plastic pot was stuffed with a sand soil. Wheat (Shirogane) was sown thereon, allowed to grow in a greenhouse at 24° C. for 7 days, transferred to a greenhouse at 15° C., and then allowed to grow for 14 days. A water-diluted solution of the present compound (I) and a water-diluted solution of pyriofenone, metrafenone, cyflufenamid, quinoxyfen or proquinazid were mixed to prepare an agent solution containing prescribed amounts of the present compound (I) and, pyriofenone, metrafenone, cyflufenamid, quinoxyfen or proquinazid. The agent solution was sprayed to the foliage of the wheat, then the plant was air-dried, and then a powdery mildew was inoculated. After the inoculation, the plant was allowed to stand at 21° C. for 7 days and then an onset area rate was examined visually and a control value was calculated using the following formula. Moreover, the present compound (I), pyriofenone, metrafenone, cyflufenamid, quinoxyfen or proquinazid was diluted with water to prepare water-diluted solutions with a prescribed concentration, the same test was carried out for each of the solutions and control values were calculated. Control value (%)=100×(A−B)/A A: an onset area rate of the non-treated group B: an onset area rate of the treated group Results are shown in Table 1.

Row | Structure (SMILES) | Control value
1 | C=CCSC(=O)n1c(N)c(-c2ccccc2C)c(=O)n1C(C)C [Present compound (I)] | 3%

Same assay, conditions: treatment concentration 0.15 ppm, single agent; foliage spray on wheat, powdery mildew inoculated, 7 days at 21° C.

Row | Structure (SMILES) | Control value
2 | O=C(Cc1ccccc1)N/C(=N\OCC1CC1)c1c(C(F)(F)F)ccc(F)c1F [Cyflufenamid] | 52%
3 | COc1cc(C)c(C(=O)c2c(OC)ccc(Br)c2C)c(OC)c1OC [Metrafenone] | 71%
4 | CCCOc1nc2ccc(I)cc2c(=O)n1CCC [Proquinazid] | 74%
5 | COc1cc(C)c(C(=O)c2c(OC)ncc(Cl)c2C)c(OC)c1OC [Pyriofenone] | 69%
6 | Fc1ccc(Oc2ccnc3cc(Cl)cc(Cl)c23)cc1 [Quinoxyfen] | 71%
